US10053477B2, “Spirocyclic aryl phosphorus oxide and aryl phosphorus sulfide” (QILU PHARMACEUTICAL CO., LTD., priority 2014, dated 2018)
Values belong to the compound of their own block, whether it stands above or below them.

Experiments:
ALK wild-type = target: T1, ALK wild-type (Homo sapiens, UniProt Q9UM73); experiment: ALK wild-type enzymatic inhibition (HTRF); type: biochemical; details: 30 μM ATP
T1 construct: purchased Carna Biosciences (Japan)
Procedure: (§1) Enzyme: ALK wild-type, ALK C1156Y and ALK L1196M supplied by Carna Biosciences (Japan), EGFR T790M/L858R supplied by Life technology (Madison, Wis.).
(§2) HTRF kit: supplied by Cis-Bio International, with Eu-marked TK1 antibody, XL665- and biotin-labelled TK1 polypeptide substrates.
10 μl wild-type ALK enzyme reaction mixture system: 0.5 nM wild-type ALK, 1 μM biotin-TK1 peptide, 30 μM ATP. Reaction buffer: 50 mM Hepes (pH7.5), 10 mM MgCl2, 0.01 mM NaV3VO4.
(§3) Incubation was carried out for 60 minutes at room temperature. Detection was by Envision.

ALK L1196M = target: T2, ALK L1196M (Homo sapiens, UniProt Q9UM73, L1196M); experiment: ALK L1196M enzymatic inhibition (HTRF); type: biochemical; details: 30 μM ATP
T2 construct: purchased Carna Biosciences (Japan)
T2 sequence (Q9UM73 19-1620 L1196M): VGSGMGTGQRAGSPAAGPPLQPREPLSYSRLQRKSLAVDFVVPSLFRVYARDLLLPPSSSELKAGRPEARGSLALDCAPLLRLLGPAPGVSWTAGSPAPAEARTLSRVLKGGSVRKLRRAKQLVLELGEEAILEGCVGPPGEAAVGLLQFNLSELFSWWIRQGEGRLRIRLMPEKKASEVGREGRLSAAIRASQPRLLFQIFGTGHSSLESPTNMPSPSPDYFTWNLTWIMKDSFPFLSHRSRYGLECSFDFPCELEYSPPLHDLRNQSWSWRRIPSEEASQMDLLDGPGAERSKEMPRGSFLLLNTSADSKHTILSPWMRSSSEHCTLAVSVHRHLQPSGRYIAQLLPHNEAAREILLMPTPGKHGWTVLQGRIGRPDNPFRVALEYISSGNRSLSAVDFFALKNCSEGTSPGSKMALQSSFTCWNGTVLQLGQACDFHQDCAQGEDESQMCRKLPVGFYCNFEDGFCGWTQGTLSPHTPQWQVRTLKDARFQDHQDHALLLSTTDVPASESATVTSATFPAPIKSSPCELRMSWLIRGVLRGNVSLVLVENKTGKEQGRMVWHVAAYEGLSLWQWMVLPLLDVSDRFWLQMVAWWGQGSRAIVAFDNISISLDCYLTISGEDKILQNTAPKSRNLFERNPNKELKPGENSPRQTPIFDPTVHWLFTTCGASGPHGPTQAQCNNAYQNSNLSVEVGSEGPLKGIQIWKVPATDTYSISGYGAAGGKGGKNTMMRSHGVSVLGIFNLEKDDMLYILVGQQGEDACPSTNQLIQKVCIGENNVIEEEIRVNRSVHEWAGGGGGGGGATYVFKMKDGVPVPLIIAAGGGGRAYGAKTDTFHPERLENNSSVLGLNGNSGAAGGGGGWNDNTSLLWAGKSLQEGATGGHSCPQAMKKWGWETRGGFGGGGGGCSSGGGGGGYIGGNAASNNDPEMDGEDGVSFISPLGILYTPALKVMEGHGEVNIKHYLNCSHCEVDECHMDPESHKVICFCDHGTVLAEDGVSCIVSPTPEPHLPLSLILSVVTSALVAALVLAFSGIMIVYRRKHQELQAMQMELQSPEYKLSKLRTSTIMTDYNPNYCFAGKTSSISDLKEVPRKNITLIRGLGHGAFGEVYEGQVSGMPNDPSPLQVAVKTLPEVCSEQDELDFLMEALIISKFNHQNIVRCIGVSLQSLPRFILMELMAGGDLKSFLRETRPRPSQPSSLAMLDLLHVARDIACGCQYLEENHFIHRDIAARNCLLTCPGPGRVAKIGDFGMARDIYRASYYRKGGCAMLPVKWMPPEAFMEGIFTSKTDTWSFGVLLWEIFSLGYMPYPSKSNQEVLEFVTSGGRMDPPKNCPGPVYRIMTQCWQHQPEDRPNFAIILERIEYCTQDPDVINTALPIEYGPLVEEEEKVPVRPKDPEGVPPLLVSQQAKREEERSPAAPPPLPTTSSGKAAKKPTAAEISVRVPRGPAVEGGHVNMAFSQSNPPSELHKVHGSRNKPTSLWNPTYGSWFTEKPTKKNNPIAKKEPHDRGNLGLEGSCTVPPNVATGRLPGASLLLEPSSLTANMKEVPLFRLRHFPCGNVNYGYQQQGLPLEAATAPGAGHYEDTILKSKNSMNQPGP
Procedure: as §1, §2
Reaction buffer: 50 mM Hepes (pH7.5), 10 mM MgCl2, 0.01 mM NaV3VO4.
as §3

ALK C1156Y = target: T3, ALK C1156Y (Homo sapiens, UniProt Q9UM73, C1156Y); experiment: ALK C1156Y enzymatic inhibition (HTRF); type: biochemical; details: 30 μM ATP
T3 construct: purchased Carna Biosciences (Japan)
T3 sequence (Q9UM73 19-1620 C1156Y): as the sequence (Q9UM73 19-1620 L1196M) above, with C1138Y, M1178L counted along it
Procedure: as §1, §2
Reaction buffer: 50 mM Hepes (pH7.5), 10 mM MgCl2, 0.01 mM NaV3VO4. […] Reaction was reacted at room temperature for 60 minutes.
as §3

EGFR T790M/L858R = target: T4, EGFR T790M/L858R (Homo sapiens, UniProt P00533, L858R/T790M); experiment: EGFR T790M/L858R enzymatic inhibition (HTRF); type: biochemical; details: 20 μM ATP
T4 construct: purchased Life technology (Madison, Wis.)
T4 sequence (P00533 25-1210 T790M/L858R): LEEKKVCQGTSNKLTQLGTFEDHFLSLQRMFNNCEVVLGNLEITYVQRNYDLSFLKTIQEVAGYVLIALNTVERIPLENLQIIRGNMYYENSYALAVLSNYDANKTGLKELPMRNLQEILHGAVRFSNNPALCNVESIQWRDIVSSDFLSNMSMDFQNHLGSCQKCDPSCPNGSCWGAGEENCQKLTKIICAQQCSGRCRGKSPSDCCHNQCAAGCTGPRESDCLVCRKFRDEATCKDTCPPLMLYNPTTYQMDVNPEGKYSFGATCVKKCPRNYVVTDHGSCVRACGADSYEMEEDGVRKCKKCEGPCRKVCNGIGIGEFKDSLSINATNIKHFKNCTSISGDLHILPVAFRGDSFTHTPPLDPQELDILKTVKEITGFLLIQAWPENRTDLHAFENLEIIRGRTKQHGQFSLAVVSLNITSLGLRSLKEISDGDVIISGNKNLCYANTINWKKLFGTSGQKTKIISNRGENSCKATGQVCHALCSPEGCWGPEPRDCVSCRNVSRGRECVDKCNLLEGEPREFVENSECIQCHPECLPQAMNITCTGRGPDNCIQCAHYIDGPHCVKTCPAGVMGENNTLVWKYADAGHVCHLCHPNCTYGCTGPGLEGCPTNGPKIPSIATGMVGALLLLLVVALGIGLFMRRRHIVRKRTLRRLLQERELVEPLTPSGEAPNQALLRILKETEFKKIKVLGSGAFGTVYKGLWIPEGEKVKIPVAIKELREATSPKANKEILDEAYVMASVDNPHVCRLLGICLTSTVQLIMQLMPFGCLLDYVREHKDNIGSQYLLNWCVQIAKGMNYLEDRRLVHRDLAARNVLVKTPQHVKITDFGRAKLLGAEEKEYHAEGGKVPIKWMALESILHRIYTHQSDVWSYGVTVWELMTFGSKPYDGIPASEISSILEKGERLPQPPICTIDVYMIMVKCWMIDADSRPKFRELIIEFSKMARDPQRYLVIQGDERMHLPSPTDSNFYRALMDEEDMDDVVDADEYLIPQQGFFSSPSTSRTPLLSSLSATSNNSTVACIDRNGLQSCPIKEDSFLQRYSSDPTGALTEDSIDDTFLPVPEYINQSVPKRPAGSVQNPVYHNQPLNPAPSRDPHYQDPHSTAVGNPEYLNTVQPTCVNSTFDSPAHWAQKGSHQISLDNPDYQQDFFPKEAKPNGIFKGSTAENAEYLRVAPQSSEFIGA
Procedure: as §1, §2
The compound to be tested is diluted at a gradient by 3 times thereby giving 11 gradients starting from […] to 0.017 nM for the final concentration.
10 μl EGFR T790M/L858R enzyme reaction mixture system: 0.08 nM EGFR T790M/L858R, 1 μM biotin-TK1 peptide, 20 μM ATP. Reaction buffer: 50 mM Hepes (pH7.5), 10 mM MgCl2, 0.01 mM NaV3VO4. The reaction plate was white Proxiplate 384-Plus plate (PerkinElmer). Reaction was reacted at room temperature for 60 minutes.
Detecting reaction: 10 μl testing reagent was added to the reaction plate, the final concentration of Antibody was 2 nM, XL665 was 62.5 nM. Incubation was carried out for 60 minutes at room temperature. Detection was by Envision.

[1] = tested on: LU-01-0015 xenotransplantation (PDX) from lung cancer patients; experiment: In vivo efficacy, LU-01-0015 xenotransplantation (PDX) from lung cancer patients; design: species or system BALB/c nude mice; details: 25 mg/kg orally everyday
Excerpt: BALB/c nude mice, female, 6 to 8 weeks, about 18 to 22 g bodyweight, was kept in a special environment without pathogens, and a single ventilated cage (5 mice per cage). Beddings and water in all the cages were disinfected before use. […] 80 mice were supplied by Shanghai BK Laboratory Animal Co., LTD for study. Each mouse was subcutaneously implanted tumor tissue (20-30 mm^3) at right flank for growth of tumor. When the average tumor volume reached about 250-300 mm^3, the assay started. Test compounds were delivered orally everyday, 25 mg/kg. Tumor size was measured with two-dimensional caliper every 3 days, size was recorded by mm^3, and calculated by the following formula: V=V=0.5a×b2, where a and b are respectively the long diameter and short diameter length of the tumor. The antitumor efficacy was determined by dividing the average increased tumor volume in compound-treated animal by the average increased tumor volume in untreated animal.

[2] = tested on: LU-01-0319 Crizotinib resistance model; experiment: In vivo anti-tumor efficacy, Crizotinib resistant LU-01-0319 xenotransplantation (PDX) tumor; design: species or system BALB/c nude mice
Excerpt: LU-01-0319 xenotransplantation tumor models initially obtained from clinical sample through surgical resection were implanted into nude mice, which was defined as a batch of P0 (LU-01-0319-P0). The next batch was defined as P1 (LU-01-0319-P1) which was implanted tumors from P0. FP3 was regained from P2, the next batch was defined as FP4 which was implanted tumors from FP3. […] The continuous increasing tumors were defined as LU-01-0319 antitumor models. BALB/c nude mice, female, 6 to 8 weeks, about 18 to 22 g bodyweight, 75 mice were used for study, supplied by Shanghai BK Laboratory Animal Co., LTD. Tumour biopsies (about 30 mm^3) of LU-01-0319R FP6 were implanted subcutaneously on right side of each mouse for growth of tumor. […] Dose of Crizotinib was appropriately varied depending on the tumor size. When average tumor volume reached about ˜500 mm^3, the assay began. Once a day the compounds to be tested were orally administered. Tumor size were measured twice a week with a caliper at two dimensions, and calculated with the following formula: V=0.5a×b2, where a and b are respectively long diameter and short diameter of the tumor. The antitumor efficacy was determined by dividing the average increased tumor volume in compound-treated animal by the average increased tumor volume in untreated animal.

[3] = tested on: LU-01-0319 xenotransplantation (PDX) from lung cancer patients; experiment: In vivo efficacy, LU-01-0319 xenotransplantation (PDX) from lung cancer patients; design: species or system BALB/c nude mice; details: 10 mg/kg orally everyday
Excerpt: BALB/c nude mice, female, 6 to 8 weeks, about 18 to 22 g bodyweight, was kept in a special environment without pathogens, and a single ventilated cage (5 mice per cage). Beddings and water in all the cages were disinfected before use. All the animal had free access to standard authorized commercially available lab diet. 80 mice were supplied by Shanghai BK Laboratory Animal Co., LTD for study. Each mouse was subcutaneously implanted tumor tissue (20-30 mm^3) at right flank for growth of tumor. When the average tumor volume reached about 250-300 mm^3, the assay started. Test compounds were delivered orally everyday, 10 mg/kg. Tumor size was measured with two-dimensional caliper every 3 days, size was recorded by mm^3, and calculated by the following formula: V=V=0.5a×b2, where a and b are respectively the long diameter and short diameter length of the tumor. The antitumor efficacy was determined by dividing the average increased tumor volume in compound-treated animal by the average increased tumor volume in untreated animal.

T1 sequence (Q9UM73 19-1620): as the sequence (Q9UM73 19-1620 L1196M) above, with M1178L counted along it

SMILES: COc1cc(N2CCC3(CCN(C)CC3)CC2)ccc1Nc1ncc(Cl)c(N(C)c2ccccc2P(C)(C)=O)n1 [Compound 18, (2-((5-Chloro-2-((2-methoxy-4-(9-methyl-3,9-diazaspiro[5.5]undecan-3-yl)phenyl)amino)pyrimidin-4-yl)(methyl)amino)phenyl)dimethyl phosphine oxide]
IC50 (ALK wild-type): > 1000 nM
IC50 (ALK L1196M): > 1000 nM
IC50 (ALK C1156Y): > 1000 nM
IC50 (EGFR T790M/L858R): > 1000 nM

SMILES: COc1cc(N2CCC3(CCN(C)CC3)CC2)ccc1Nc1ncc(Cl)c(Oc2ccccc2P(C)(C)=O)n1 [Compound 19, (2-((5-Chloro-2-((2-methoxy-4-(9-methyl-3,9-diazaspiro[5.5]undecan-3-yl)phenyl)amino)pyrimidin-4-yl)oxy)phenyl)dimethyl phosphine oxide]
IC50 (ALK wild-type): > 1000 nM
IC50 (ALK L1196M): > 1000 nM
IC50 (ALK C1156Y): > 1000 nM
IC50 (EGFR T790M/L858R): > 1000 nM

SMILES: COc1cc(N2CCC3(CCN(C)CC3)CC2)c(Br)cc1Nc1ncc(Cl)c(Nc2ccccc2P(C)(C)=O)n1 [Compound 21, (2-((2-((5-Bromo-2-methoxy-4-(9-methyl-3,9-diazaspiro[5.5]undecan-3-yl)phenyl)amino)-5-chloropyrimidin-4-yl)amino)phenyl)dimethyl phosphine oxide]
IC50 (ALK wild-type): 1 to 100 nM
IC50 (ALK L1196M): 1 to 100 nM
IC50 (ALK C1156Y): 1 to 100 nM
IC50 (EGFR T790M/L858R): 1 to 100 nM

SMILES: CN1CCC2(CCC(c3ccc(Nc4ncc(Cl)c(Nc5ccccc5P(C)(C)=O)n4)c(OC(F)F)c3)CC2)CC1 [Compound 28, (2-((5-Chloro-2-((2-(difluoromethoxy)-4-(3-methyl-3-azaspiro[5.5]undecan-9-yl)phenyl)amino)pyrimidin-4-yl)amino)phenyl)dimethyl phosphine oxide]
IC50 (ALK wild-type): 1 to 100 nM
IC50 (ALK L1196M): 1 to 100 nM
IC50 (ALK C1156Y): 1 to 100 nM
IC50 (EGFR T790M/L858R): 1 to 100 nM

Continued, in another order:

IC50 (ALK wild-type): 1 to 100 nM
IC50 (ALK L1196M): 1 to 100 nM
IC50 (ALK C1156Y): 1 to 100 nM
IC50 (EGFR T790M/L858R): 1 to 100 nM
SMILES: COc1cc(N2CCC3(CC2)CN(C)C3)ccc1Nc1ncc(Cl)c(Nc2ccccc2P(C)(C)=O)n1 [Compound 5, (2-((5-Chloro-2-((2-methoxy-4-(2-methyl-2,7-diazaspiro[3.5]nonan-7-yl)phenyl)amino)pyrimidin-4-yl)amino)phenyl)dimethyl phosphine oxide]
Tumor volume ([1]; 3 days): 259 mm^3
Tumor volume ([1]; 6 days): 214 mm^3
Tumor volume ([1]; 9 days): 172 mm^3
Tumor volume ([1]; 12 days): 117 mm^3
Tumor volume ([1]; 16 days): 104 mm^3
Tumor volume ([1]; 19 days): 123 mm^3
Tumor volume ([1]; 23 days): 124 mm^3

IC50 (ALK wild-type): 1 to 100 nM
IC50 (ALK L1196M): 1 to 100 nM
IC50 (ALK C1156Y): 1 to 100 nM
IC50 (EGFR T790M/L858R): 1 to 100 nM
SMILES: COc1cc(N2CCC3(CCN(C)CC3)CC2)ccc1Nc1ncc(Cl)c(Nc2ccccc2P(C)(C)=O)n1 [Compound 9, (2-((5-Chloro-2-((2-methoxy-4-(9-methyl-3,9-diazaspiro[5.5]undecan-3-yl)phenyl)amino)pyrimidin-4-yl)amino)phenyl)dimethyl phosphine oxide]
Tumor volume ([1]; 3 days): 158 mm^3
Tumor volume ([1]; 6 days): 108 mm^3
Tumor volume ([1]; 9 days): 82 mm^3
Tumor volume ([1]; 12 days): 58 mm^3
Tumor volume ([1]; 16 days): 48 mm^3
Tumor volume ([1]; 19 days): 46 mm^3
Tumor volume ([1]; 23 days): 43 mm^3
Tumor volume ([2]; 0 day, dosage 3 mg/Kg orally once a day): 502 mm^3
Tumor volume ([2]; 0 day, dosage 10 mg/Kg orally once a day): 502 mm^3
Tumor volume ([2]; 3 days, dosage 3 mg/Kg orally once a day): 722 mm^3
Tumor volume ([2]; 3 days, dosage 10 mg/Kg orally once a day): 557 mm^3
Tumor volume ([2]; 7 days, dosage 3 mg/Kg orally once a day): 859 mm^3
Tumor volume ([2]; 7 days, dosage 10 mg/Kg orally once a day): 416 mm^3
Tumor volume ([2]; 10 days, dosage 3 mg/Kg orally once a day): 1101 mm^3
Tumor volume ([2]; 10 days, dosage 10 mg/Kg orally once a day): 261 mm^3
Tumor volume ([2]; 13 days, dosage 3 mg/Kg orally once a day): 1218 mm^3
Tumor volume ([2]; 13 days, dosage 10 mg/Kg orally once a day): 196 mm^3
Tumor volume ([2]; 17 days, dosage 3 mg/Kg orally once a day): 1441 mm^3
Tumor volume ([2]; 17 days, dosage 10 mg/Kg orally once a day): 133 mm^3
Tumor volume ([2]; 19 days, dosage 3 mg/Kg orally once a day): 1521 mm^3
Tumor volume ([2]; 19 days, dosage 10 mg/Kg orally once a day): 102 mm^3
Tumor volume ([3]; 0 days): 371 mm^3
Tumor volume ([3]; 2 days): 359 mm^3
Tumor volume ([3]; 6 days): 369 mm^3
Tumor volume ([3]; 9 days): 301 mm^3
Tumor volume ([3]; 13 days): 305 mm^3
Tumor volume ([3]; 16 days): 291 mm^3
Tumor volume ([3]; 20 days): 203 mm^3
Tumor volume ([3]; 23 days): 172 mm^3

IC50 (ALK wild-type): 1 to 100 nM
IC50 (ALK L1196M): 1 to 100 nM
IC50 (ALK C1156Y): 1 to 100 nM
IC50 (EGFR T790M/L858R): 101 to 1000 nM
SMILES: COc1cc(N2CCC3(CCN(C)CC3)CC2)ncc1Nc1ncc(Cl)c(Nc2ccccc2P(C)(C)=O)n1 [Compound 24, (2-((5-Chloro-2-((4-methoxy-6-(9-methyl-3,9-diazaspiro[5.5]undecan-3-yl)pyridin-3-yl)amino)pyrimidin-4-yl)amino)phenyl)dimethyl phosphine oxide]

IC50 (ALK wild-type): 1 to 100 nM
IC50 (ALK L1196M): 1 to 100 nM
IC50 (ALK C1156Y): 1 to 100 nM
IC50 (EGFR T790M/L858R): 1 to 100 nM
SMILES: COc1cc(C2CC3(CCN(C)CC3)C2)c(F)cc1Nc1ncc(Cl)c(Nc2ccccc2P(C)(C)=O)n1 [Compound 29, (2-((5-Chloro-2-((5-fluoro-2-methoxy-4-(7-methyl-7-azaspiro[3.5]nonan-2-yl)phenyl)amino)pyrimidin-4-yl)amino)phenyl)dimethyl phosphine oxide]
